pIC50: −log10 of the molar value.
Test system: 743489-274-T-PDC complex spheroid growth
Assay: Anticancer human tumor 743489-274-T-PDC patient-derived renal cell carcinoma cell line growth inhibition [AhR]
Conditions: for pIC50: curve of first compound; for viability, T/C: stronger effect = lower value
Outline: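 Spheroids combined tumor cells with HUVEC endothelial cells and human MSCs as stroma. AhR antagonists were paired with standard or investigational drugs, each dosed in half-log steps down from near clinical Cmax, or from 10 microM where Cmax was unknown.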
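Note: spheroids exposed to agents for 7 days before readout.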
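Throughout, for viability, T/C: 100% = DMSO vehicle control wells.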

CC(C)c1c(-c2ccccc2)nc2c(C#N)c[nH]n2c1=O + Cc1cncc(-c2nc(NCCc3c[nH]c4ccccc34)c3ncn(C(C)C)c3n2)c1
pIC50 (second compound 0.1 µM): < 5.00
pIC50 (second compound 0.316 µM): < 5.00
pIC50 (second compound 1 µM): < 5.00
pIC50 (second compound 3.16 µM): < 5.00
pIC50 (second compound 10 µM): < 5.00
viability, T/C (second compound 0.1 µM, first compound 0.0316 µM): 101%
viability, T/C (second compound 0.1 µM, first compound 0.1 µM): 126%
viability, T/C (second compound 0.1 µM, first compound 0.316 µM): 104%
viability, T/C (second compound 0.1 µM, first compound 1 µM): 103%
viability, T/C (second compound 0.1 µM, first compound 3.16 µM): 96.2%
viability, T/C (second compound 0.1 µM, first compound 10 µM): 104%
viability, T/C (second compound 0.316 µM, first compound 0.0316 µM): 112%
viability, T/C (second compound 0.316 µM, first compound 0.1 µM): 104%
viability, T/C (second compound 0.316 µM, first compound 0.316 µM): 101%
viability, T/C (second compound 0.316 µM, first compound 1 µM): 107%
viability, T/C (second compound 0.316 µM, first compound 3.16 µM): 100%
viability, T/C (second compound 0.316 µM, first compound 10 µM): 96.7%
viability, T/C (second compound 1 µM, first compound 0.0316 µM): 107%
viability, T/C (second compound 1 µM, first compound 0.1 µM): 103%
viability, T/C (second compound 1 µM, first compound 0.316 µM): 111%
viability, T/C (second compound 1 µM, first compound 1 µM): 96.7%
viability, T/C (second compound 1 µM, first compound 3.16 µM): 105%
viability, T/C (second compound 1 µM, first compound 10 µM): 102%
viability, T/C (second compound 3.16 µM, first compound 0.0316 µM): 114%
viability, T/C (second compound 3.16 µM, first compound 0.1 µM): 119%
viability, T/C (second compound 3.16 µM, first compound 0.316 µM): 121%
viability, T/C (second compound 3.16 µM, first compound 1 µM): 119%
viability, T/C (second compound 3.16 µM, first compound 3.16 µM): 110%
viability, T/C (second compound 3.16 µM, first compound 10 µM): 115%
viability, T/C (second compound 10 µM, first compound 0.0316 µM): 126%
viability, T/C (second compound 10 µM, first compound 0.1 µM): 141%
viability, T/C (second compound 10 µM, first compound 0.316 µM): 133%
viability, T/C (second compound 10 µM, first compound 1 µM): 125%
viability, T/C (second compound 10 µM, first compound 3.16 µM): 109%
viability, T/C (second compound 10 µM, first compound 10 µM): 134%

Reference: PubChem BioAssay AID1919002 (Molecular Pharmacology Branch, DTP, NCI, 2023)
